Assay results from US20230095912A1, “Composition and Methods for Selective Degradation of Engineered Proteins” (Celgene Corporation, priority 2021, published 2023).
Where two headings read alike, the source gives them in different places.

Experiments:
[1] = tested on: WT IKZF1 ZNF2_3-tagged CARs; assay: Erk phosphorylation (pErk) western blot after CAR degradation in Jurkat cells; type: cell-based, human; conditions: 1 mM pretreatment 12 hours, co-culture with CD19-expressing K562 30 minutes
Description: Abrogation of signaling with CAR degradation was assessed by measuring activation of the downstream MAPK signaling pathway. Jurkat cells were transduced with untagged, WT degron-tagged, or G6N degron-tagged CAR as described above.

[2] = molecular target: IKZF1 ZNF2-tagged CD19 CAR (Homo sapiens, UniProt Q13422+Q96SW2); conditions: jurkat, 1440 min
ePL-tagged CK1a = molecular target: T1, ePL-tagged CK1a (Homo sapiens, UniProt P48729+Q96SW2); assay: ePL-tagged substrate degradation in MDS-L cells; type: cell-based; conditions: for DC50: CK1a, MDS-L cells, 4 hours
T1 construct: expressed in transfected cells
Description: (§1) DF15 multiple myeloma cells stably expressing ePL-tagged Aiolos, Ikaros, or GSPT1, and MDS-L cells stably expressing ePL-tagged CK1a were generated via lentiviral infection with pLOC-ePL-Aiolos (or Ikaros, GSPT1, or CK1a). […] Compounds were dispensed by an acoustic dispenser (ATS acoustic transfer system from EDC Biosystems) into a 384-well plate in a 10-point dose response curve using 3-fold dilutions starting at 10 μM and going down to […]. Then, 25 μL of media (RPMI-1640+10% heat inactivated FBS+25 mM Hepes+1 mM Na pyruvate+1× NEAA+1×Pen Strep Glutamine) containing 5000 of DF15 or MSD-L cells was dispensed per well. Assay plates were incubated at 37° C. with 5% CO2 for 4 hours except 20 hours for GSPT1. After incubation, 25 μL of the InCELL Hunter detection reagent working solution (DiscoverX, catalogue no. 96-0002, Fremont, Calif.) was added to each well and incubated at room temperature for 60 min protected from light. After 60 min, luminescence was read on an Envision or PHERAstar luminescence reader.
(§2) To determine the EC50 value of a compound for the degradation of a given substrate (concentration of compound that achieves half the maximum degradation observed), a four-parameter logistic model (sigmoidal dose—response model) (FIT=(A+{(B−A)/1+[(C/x)D]})) where C is the inflection point (EC50), D is the […], and A and B are the low and high limits of the fit, respectively) was used. All substrate degradation curves were processed and evaluated using ActivityBase (IDBS), a data analysis software package. Ymin is minimum percent protein remaining.

[3] = molecular target: IKZF1 ZNF2_3 tagged CD19 CAR (Homo sapiens, UniProt Q13422+Q96SW2); conditions: 100 nM pre-treatment 48 hours, co-culture with CD19-expressing K562 8 hours
Description: Function of IKZF1 ZNF2 tagged CD19 CAR T cells (FIG. 2, ZNF2 amino acid sequence of SEQ ID NO: 15) was evaluated in a reporter assay, in which Jurkat cells have been engineered to express tdTomato when the Nur77 gene, associated with CAR and TCR activation, is actively transcribed (FIG. 3). Lentiviral vectors encoding ZNF-tagged CD19 CAR, untagged CD19 CAR, or an untagged BCMA CAR negative control were transduced into the Jurkat reporter cell line. Transduced cells were then co-cultured with a CD19-expressing K562 target cell line at 37° C. Levels of tdTomato, both in the form of mean fluorescence intensity (MFI) and the overall percent of positive cells, were assessed by flow cytometry every 2 hours for 12 hours.
A lentiviral vector encoding ZNF2_3 tagged or untagged CD19 CAR (see Example 2) was transduced into the reporter cell line. […] Levels of tdTomato in the form of mean fluorescence intensity (MFI) (FIG. 6B) and the overall percent of positive cells, as well as normalized CAR levels (FIG. 6C), were assessed by flow cytometry (FIG. 6A).

[4] = tested on: CAR tagged with ZNF2_3 containing a G6N mutation; assay: Compound A titration on Jurkat cells with CAR tagged with ZNF2_3 G6N mutant degron; type: cell-based, human; conditions: any dose
From the text: The IKZF1 degrons were fused to the C-terminus. See SEQ ID NOs: 53-57. […] This configuration was therefore selected for further testing.

Aurora A = conditions: 1 μM, 16 hours, knock-in Jurkat cells
From the text: (§3) The ability to knock degron tags in-frame into genomic loci to allow for compound-mediated modulation of endogenous protein levels was explored. Adeno-associated viral vectors were designed to deliver IKZF1 ZNF2_3-V5 tag-T2A-muThy1.1 tags to be knocked in-frame into the AURA (FIG. […]) or TOX locus (FIG. 20C-20D) in Jurkat cells in both the N- and C-terminal orientations. Jurkats were then electroporated with Cas9/guide RNA ribonucleoproteins. […] Cells were then pelleted, lysed, run on a denaturing protein gel, transferred to a membrane, probed with antibody and visualized with film.

tagged TOX = conditions: 1 μM, 16 hours, knock-in Jurkat cells
From the text: as §3

ePL-tagged Ikaros = molecular target: T2, ePL-tagged Ikaros (Homo sapiens, UniProt Q13422+Q96SW2); assay: ePL-tagged substrate degradation in DF15 multiple myeloma cells; type: cell-based; conditions: for DC50: Ikaros, DF15 cells, 4 hours
T2 construct: expressed in transfected cells
Description: as §1, §2

ePL-tagged GSPT1 = molecular target: T3, ePL-tagged GSPT1 (Homo sapiens, UniProt P15170+Q96SW2); assay: as above; type: cell-based; conditions: for DC50: GSPT1, DF15 cells, 20 hours
T3 construct: expressed in transfected cells
Description: as §1, §2

[5] = molecular target: CAR tagged with WT ZNF2_3 (Homo sapiens, UniProt Q13422+Q96SW2); conditions: higher Compound A concentrations
Description: The IKZF1-ZNF2 degron was further modified to promote improved CAR degradation. Untagged CAR and CAR tagged with the original IKZF1-ZNF2 degrons were tested alongside alternate orientations and combinations of IKZF1 ZNF1, ZNF2, and ZNF3 (FIG. 5A). Each CAR included a CD28 transmembrane domain, a 4-1BB costimulatory domain, and a CD3 (CD3z) signaling domain. The IKZF1 degrons were fused to the C-terminus. […] A lentiviral vector encoding untagged CD19 CAR or CAR tagged with various configurations of IKZF1-ZNFs was transduced into the Jurkat cell line. Transduced cells were first co-cultured with a CD19-expressing K562 target cell line at 37° C. for 7.5 hours, and normalized levels of tdTomato reporter were assessed by flow cytometry.

[6] = tested on: IKZF1 ZNF2_3 Q1F tagged CD19 CAR; assay: Jurkat reporter assay (tdTomato), signaling of Q1F-tagged CAR after degradation; type: cell-based, human; conditions: 1 mM pre-treatment 12 hours, co-culture with CD19-expressing K562 8 hours
Description: A lentiviral vector encoding ZNF2_3 Q1F or Q1F/G6N tagged CD19 CAR was transduced into the reporter cell line. […] Levels of tdTomato in the form of the overall percent of positive cells (FIG. 12A), as well as mean fluorescence intensity (MFI, FIG. 12B) were assessed by flow cytometry. Degradation of CARs containing the ZNF2_3 Q1F degron decreased signaling by around 30% using 1 mM Compound C and by around 75% using Compound B; this relative difference correlates with the depth of degradation seen for each. Further, the reduction in activity depends upon having an intact G-motif, as the G6N mutation prevents inhibition.

[7] = molecular target: T4, CD19 CARs tagged with IKZF1 ZNF2_ZNF3 Q1F (Homo sapiens, UniProt Q13422, Q146F); assay: Small-molecule screen: Q1F degron-tagged CD19 CAR levels in Jurkat cells, flow cytometry; type: cell-based; conditions: for Ymin (%): minimum percent protein remaining
T4 construct: EC50 (Q1F degron); other: Jurkat cells, 18 hours, CAR levels normalized to no drug; Ymin (Q1F degron); Ymin (%); minimum percent protein remaining; Nluc reporter
Description: A set of potential degron-targeting compounds was screened against the Q1F degron, resulting in a set of potent degron/small-molecule pairs. Lentiviral vectors containing CD19 CARs tagged with IKZF1 ZNF2_ZNF3 Q1F Nluc were transduced into Jurkat cells. The CD19 CAR was similar to the CD19 CAR in Example 2, but comprising the ZNF2_ZNF3 Q1F degron (SEQ ID NO: 19). Transduced cells were treated with a titration of each small molecule or no drug and then incubated at 37° C. for 18 hours. Cells were washed and stained with appropriate staining reagent to measure CAR levels. The cells were incubated at 4° C. in the staining reagents for 20 mins and then washed 3 times before being read on the flow cytometer. CAR levels were normalized to cells that had not been treated with drug. EC50 and Ymin values were calculated using the resulting titration curve. This identified small molecules that potently degraded the Q1F degron-tagged CARs (Table 1).

IKZF1 ZNF2 Q1F = assay: In vitro ubiquitination screen of Ikaros MBP-ZNF2 Q1 mutants; type: biochemical, human; conditions: western blot
From the text: Structural studies reveal that position 1 of the G-motif is in close proximity to the compound when substrates are bound to cereblon/compound complexes (not shown). Alignment of the G-motif degron sequences of the IKZF family (FIG. 8) and predicted degrons within other C2H2 zinc fingers (FIG. 9) reveal a diverse set of amino acids at this position. Therefore, to identify additional compound:degron pairs, mutations were made in the Q1 position of IKZF1 ZNF2, and potential compounds were screened for activity against these mutants. Plasmids were built containing Ikaros MBP-ZNF2 (aa 141-196) with alternate amino acids at the Q1 position, and an in vitro ubiquitination screen was conducted using various compounds including Compound B (FIG. 10A).

Helios = molecular target: T5, Helios (Homo sapiens, UniProt Q96SW2+Q9UKS7); assay: Helios HiBit degradation in Jurkat cells; type: cell-based; conditions: for DC50: Helios, Jurkat/Helios/HiBit cells, 18 hr, read-out: EC50 (the source's name)
T5 construct: endogenous in cells; host or cells: Jurkat/Helios/HiBit cells (CRISPR/Cas9 knock-in)
Description: For Helios, a stable Jurkat cell line was engineered using CRISPR/Cas9 to insert an in-frame HiBit tag into the carboxy-terminal reading frame of the IKZF2 gene. Test compounds were transferred to 1536 well plates using an acoustic dispenser, and Jurkat/Helios/HiBit cells in DMEM/10% FCS were plated at 10,000 cells/well in a final volume of 5 ul. Cells were incubated at 37C, 95% RH for 18 hr. Luciferase activity was measured by adding 2 ul/well of Nano-Glo reagent (Promega), incubating at RT for 30 min, and reading luminescence on a microtiter plate reader.
(§4) All substrate degradation curves were processed and evaluated using ActivityBase (IDBS), a data analysis software package. Ymin is minimum percent protein remaining.

ePL-tagged Aiolos = molecular target: T6, ePL-tagged Aiolos (Homo sapiens, UniProt Q96SW2+Q9UKT9); assay: ePL-tagged substrate degradation in DF15 multiple myeloma cells; type: cell-based; conditions: for DC50: Aiolos, DF15 cells, 4 hours, read-out: EC50 (the source's name)
T6 construct: expressed in transfected cells
Description: as §1, §4

[8] = tested on: ZNF2_3 Q1F tagged CD19 CAR; assay: Raji xenograft model, degron-tagged CAR T down-regulation in NSG mice; type: in vivo; conditions: 6.85 mg/kg BID orally on days 0 and 1, Raji tumor
Description: (§5) The ability to degrade ZNF2_3 Q1F tagged CAR in vivo was evaluated. A lentiviral vector encoding ZNF2_3 Q1F tagged CD19 CAR was transduced into activated primary T cells. Transduced cells were expanded for 10 days in media supplemented with IL2, IL7 and IL15, then frozen.
To examine the down-regulation of degron-tagged CAR in vivo in a xenograft cancer model and the impact on CAR T function, female NSG™ mice were injected with 5×10^5 of Raji tumor cells stably expressing renilla luciferase. Six days later CAR T cells were thawed, rested for 24 hours and adoptively transferred into the mice at a dose of 2×10^6 cells per animal. Mice were dosed orally with vehicle or 6.85 mg/kg Compound D BID on days 0 and 1 (FIG. 19A). Blood was drawn and tumor fluorescence measured at D1, D3, and D10 (FIG. 19A), and the proportion of CAR+T cells, as determined by staining with anti-scFv and anti-CD3 antibodies, was evaluated by flow.

[9] = tested on: CD19 CARs tagged with IKZF1 ZNF2_ZNF3 Q1F; assay: Small-molecule screen: Q1F degron-tagged CD19 CAR levels in Jurkat cells, flow cytometry; type: cell-based, human; conditions: versus Helios, Aiolos, Ikaros, GSPT1, CK1a
[10] = tested on: ZNF2_3 Q1F tagged CD19 CAR; assay: In vivo degradation of degron-tagged CAR in non-tumor bearing NSG mice
Description: as §5
To determine the ability to degrade degron-tagged CAR in vivo in the absence of tumor, CAR T cells were thawed, rested for 24 hours and adoptively transferred into non-tumor bearing female NSG™ immunodeficient mice at a dose of 2×10^6 cells per animal. After 24 hours, mice were dosed orally with vehicle, 0.85 or 8.5 mg/kg Compound D (FIG. 18B). Blood was drawn 8, 24, 48 and 72 hours later (FIG. 18A), and the proportion of CAR+ T cells, as determined by staining with anti-scFv and anti-CD3 antibodies, was evaluated by flow.

[11] = read-out: EC50 (the source's name)
[12] = Degron Q1F (from Table 1), read-out: EC50 (the source's name)
[13] = Jurkat assay described in Example 5, read-out: EC50 for the Q1F degron
[14] = Jurkat cells, 18 hours, CAR levels normalized to no drug
[15] = Jurkat cells, 18 hours, CAR levels normalized to no drug, read-out: EC50 (Q1F degron)

T3 sequence (P15170 whole entry): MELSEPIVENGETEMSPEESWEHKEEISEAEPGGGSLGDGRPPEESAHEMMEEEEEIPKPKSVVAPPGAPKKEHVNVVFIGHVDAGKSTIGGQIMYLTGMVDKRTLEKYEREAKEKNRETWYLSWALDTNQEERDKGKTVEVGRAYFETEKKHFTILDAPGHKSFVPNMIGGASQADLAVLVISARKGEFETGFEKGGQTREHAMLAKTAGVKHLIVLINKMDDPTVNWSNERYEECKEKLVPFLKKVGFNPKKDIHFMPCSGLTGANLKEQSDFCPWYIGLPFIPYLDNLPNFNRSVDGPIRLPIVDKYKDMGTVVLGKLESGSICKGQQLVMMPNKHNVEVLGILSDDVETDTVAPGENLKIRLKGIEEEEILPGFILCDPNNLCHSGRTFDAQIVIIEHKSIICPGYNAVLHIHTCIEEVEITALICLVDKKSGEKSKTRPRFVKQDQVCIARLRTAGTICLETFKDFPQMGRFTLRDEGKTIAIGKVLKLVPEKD
T3 sequence (Q96SW2 whole entry): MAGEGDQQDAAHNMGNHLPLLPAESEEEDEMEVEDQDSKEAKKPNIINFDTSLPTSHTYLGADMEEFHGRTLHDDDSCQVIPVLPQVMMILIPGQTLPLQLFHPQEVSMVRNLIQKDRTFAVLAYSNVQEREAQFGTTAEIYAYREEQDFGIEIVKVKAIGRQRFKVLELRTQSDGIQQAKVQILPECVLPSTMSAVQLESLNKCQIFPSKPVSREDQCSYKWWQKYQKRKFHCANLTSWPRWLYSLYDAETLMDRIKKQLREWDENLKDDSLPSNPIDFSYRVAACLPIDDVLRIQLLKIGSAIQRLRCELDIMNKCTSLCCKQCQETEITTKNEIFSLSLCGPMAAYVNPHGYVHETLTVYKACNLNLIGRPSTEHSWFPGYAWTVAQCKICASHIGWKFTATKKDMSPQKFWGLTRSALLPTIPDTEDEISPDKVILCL
T3 sequence (Q16531 whole entry partner): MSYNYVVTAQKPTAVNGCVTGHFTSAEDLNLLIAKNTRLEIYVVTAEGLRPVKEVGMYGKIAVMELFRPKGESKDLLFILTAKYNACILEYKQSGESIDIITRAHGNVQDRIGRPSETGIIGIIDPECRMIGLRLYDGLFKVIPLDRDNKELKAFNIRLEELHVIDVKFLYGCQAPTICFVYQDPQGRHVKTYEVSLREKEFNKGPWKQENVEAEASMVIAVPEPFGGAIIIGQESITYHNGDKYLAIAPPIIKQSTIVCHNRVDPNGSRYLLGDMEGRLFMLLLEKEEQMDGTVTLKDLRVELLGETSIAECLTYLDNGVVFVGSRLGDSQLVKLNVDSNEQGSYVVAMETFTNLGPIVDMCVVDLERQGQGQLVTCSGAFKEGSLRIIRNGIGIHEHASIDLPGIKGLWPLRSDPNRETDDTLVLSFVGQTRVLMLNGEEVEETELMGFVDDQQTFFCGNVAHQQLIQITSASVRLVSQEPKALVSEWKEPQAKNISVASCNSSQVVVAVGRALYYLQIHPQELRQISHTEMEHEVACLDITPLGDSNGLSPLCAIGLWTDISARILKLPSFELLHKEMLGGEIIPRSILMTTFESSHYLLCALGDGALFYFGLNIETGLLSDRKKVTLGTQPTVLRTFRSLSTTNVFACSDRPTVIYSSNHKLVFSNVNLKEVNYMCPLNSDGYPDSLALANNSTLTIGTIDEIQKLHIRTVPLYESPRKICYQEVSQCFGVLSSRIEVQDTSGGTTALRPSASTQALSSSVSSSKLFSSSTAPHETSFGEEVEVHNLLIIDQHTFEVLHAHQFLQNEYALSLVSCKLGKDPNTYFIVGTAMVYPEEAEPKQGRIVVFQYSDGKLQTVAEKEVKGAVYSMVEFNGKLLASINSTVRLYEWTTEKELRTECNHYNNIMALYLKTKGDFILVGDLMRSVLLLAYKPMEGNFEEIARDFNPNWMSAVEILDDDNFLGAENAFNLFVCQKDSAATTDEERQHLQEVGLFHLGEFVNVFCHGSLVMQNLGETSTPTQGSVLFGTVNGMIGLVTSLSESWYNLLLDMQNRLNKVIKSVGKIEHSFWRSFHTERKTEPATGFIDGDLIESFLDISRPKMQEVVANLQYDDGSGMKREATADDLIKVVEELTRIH
T2 sequence (Q13422 whole entry): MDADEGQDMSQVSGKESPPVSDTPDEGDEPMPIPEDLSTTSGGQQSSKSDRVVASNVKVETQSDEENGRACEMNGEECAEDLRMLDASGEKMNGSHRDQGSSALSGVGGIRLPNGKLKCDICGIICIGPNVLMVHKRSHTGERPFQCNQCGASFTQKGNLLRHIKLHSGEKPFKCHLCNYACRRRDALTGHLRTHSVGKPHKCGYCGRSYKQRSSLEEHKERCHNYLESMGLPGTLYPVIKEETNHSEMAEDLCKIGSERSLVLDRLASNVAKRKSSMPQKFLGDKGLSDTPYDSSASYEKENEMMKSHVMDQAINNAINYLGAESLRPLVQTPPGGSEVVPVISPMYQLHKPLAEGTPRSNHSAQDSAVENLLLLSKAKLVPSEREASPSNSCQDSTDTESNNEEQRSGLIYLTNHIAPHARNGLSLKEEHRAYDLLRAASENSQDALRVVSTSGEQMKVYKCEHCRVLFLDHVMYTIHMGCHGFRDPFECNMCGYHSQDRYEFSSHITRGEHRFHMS
T2 sequence (Q96SW2 whole entry): as the sequence (Q96SW2 whole entry) above
T2 sequence (Q16531 whole entry partner): as the sequence (Q16531 whole entry partner) above
T1 sequence (P48729 whole entry): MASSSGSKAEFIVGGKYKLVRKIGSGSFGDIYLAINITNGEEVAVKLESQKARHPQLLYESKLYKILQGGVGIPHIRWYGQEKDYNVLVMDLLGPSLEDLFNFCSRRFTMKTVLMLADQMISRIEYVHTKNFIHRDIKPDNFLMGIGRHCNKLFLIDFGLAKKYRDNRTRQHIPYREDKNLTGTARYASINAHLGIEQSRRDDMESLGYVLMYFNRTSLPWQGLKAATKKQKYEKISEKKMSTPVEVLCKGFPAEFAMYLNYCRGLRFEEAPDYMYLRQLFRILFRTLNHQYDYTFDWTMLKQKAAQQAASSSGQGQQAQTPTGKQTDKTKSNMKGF
T1 sequence (Q96SW2 whole entry): as the sequence (Q96SW2 whole entry) above
T1 sequence (Q16531 whole entry partner): as the sequence (Q16531 whole entry partner) above
T5 sequence (Q9UKS7 whole entry): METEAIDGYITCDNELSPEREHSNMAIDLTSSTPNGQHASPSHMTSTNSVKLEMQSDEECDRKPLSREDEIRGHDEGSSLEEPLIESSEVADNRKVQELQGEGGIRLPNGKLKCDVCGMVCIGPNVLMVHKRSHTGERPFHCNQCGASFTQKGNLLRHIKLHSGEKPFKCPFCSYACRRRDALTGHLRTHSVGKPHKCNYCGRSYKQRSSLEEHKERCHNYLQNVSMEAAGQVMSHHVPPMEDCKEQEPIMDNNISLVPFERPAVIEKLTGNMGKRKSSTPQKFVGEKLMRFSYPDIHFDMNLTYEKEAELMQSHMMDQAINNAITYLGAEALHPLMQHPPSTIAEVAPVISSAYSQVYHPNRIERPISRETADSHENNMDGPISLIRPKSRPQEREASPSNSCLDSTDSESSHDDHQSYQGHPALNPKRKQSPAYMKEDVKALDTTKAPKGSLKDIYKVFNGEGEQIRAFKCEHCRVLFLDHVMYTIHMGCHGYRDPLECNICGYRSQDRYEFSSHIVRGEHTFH
T5 sequence (Q96SW2 whole entry): as the sequence (Q96SW2 whole entry) above
T5 sequence (Q16531 whole entry partner): as the sequence (Q16531 whole entry partner) above
T4 sequence (Q13422 whole entry Q146F): as the sequence (Q13422 whole entry) above, with Q146F counted along it
T6 sequence (Q9UKT9 whole entry): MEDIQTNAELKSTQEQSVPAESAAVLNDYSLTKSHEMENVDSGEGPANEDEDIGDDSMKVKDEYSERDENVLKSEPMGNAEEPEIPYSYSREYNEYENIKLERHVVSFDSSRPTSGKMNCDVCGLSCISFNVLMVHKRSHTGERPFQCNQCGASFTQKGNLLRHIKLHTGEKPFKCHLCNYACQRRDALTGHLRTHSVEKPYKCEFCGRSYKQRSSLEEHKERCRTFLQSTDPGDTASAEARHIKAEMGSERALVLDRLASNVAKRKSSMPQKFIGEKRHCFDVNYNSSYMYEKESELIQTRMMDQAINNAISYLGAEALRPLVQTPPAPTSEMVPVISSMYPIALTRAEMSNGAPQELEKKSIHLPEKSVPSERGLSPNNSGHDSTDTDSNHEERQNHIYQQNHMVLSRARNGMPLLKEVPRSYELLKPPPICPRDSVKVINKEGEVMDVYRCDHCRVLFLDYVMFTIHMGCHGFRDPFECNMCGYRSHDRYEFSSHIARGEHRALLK
T6 sequence (Q96SW2 whole entry): as the sequence (Q96SW2 whole entry) above
T6 sequence (Q16531 whole entry partner): as the sequence (Q16531 whole entry partner) above
Chain of IKZF1 ZNF2_3 tagged CD19 CAR (Q96SW2 whole entry): as the sequence (Q96SW2 whole entry) above
Chain of IKZF1 ZNF2_3 tagged CD19 CAR (Q13422 other isoform, or with tags, fused parts or gaps): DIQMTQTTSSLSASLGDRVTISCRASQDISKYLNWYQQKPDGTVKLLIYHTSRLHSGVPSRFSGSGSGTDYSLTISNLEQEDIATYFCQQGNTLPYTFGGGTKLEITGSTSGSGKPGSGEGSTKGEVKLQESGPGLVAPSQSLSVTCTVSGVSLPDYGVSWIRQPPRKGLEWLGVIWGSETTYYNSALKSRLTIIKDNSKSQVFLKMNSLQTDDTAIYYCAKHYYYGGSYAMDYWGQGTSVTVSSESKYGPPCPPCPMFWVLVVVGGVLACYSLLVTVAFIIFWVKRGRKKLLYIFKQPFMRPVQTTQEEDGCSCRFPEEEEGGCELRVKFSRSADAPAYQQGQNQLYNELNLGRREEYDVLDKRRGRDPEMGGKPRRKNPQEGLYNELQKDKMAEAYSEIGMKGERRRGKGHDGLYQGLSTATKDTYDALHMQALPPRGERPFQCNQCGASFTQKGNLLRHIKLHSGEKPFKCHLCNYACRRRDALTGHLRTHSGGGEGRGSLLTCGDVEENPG
Chain of IKZF1 ZNF2_3 tagged CD19 CAR (Q16531 whole entry, further chain): as the sequence (Q16531 whole entry partner) above

SMILES | Ymin (%) (ePL-tagged CK1a) | DC50 (ePL-tagged CK1a; [11]) [µM] | Ymin (%) ([7]; Degron Q1F (from Table 1)) | DC50 [7, 12] [µM] | DC50 [7, 13] [µM] | Ymin (Q1F degron) [7, 14] [%] | DC50 [7, 15] [µM] | Ymin (%) (ePL-tagged Ikaros) | DC50 (ePL-tagged Ikaros; [11]) [µM] | Ymin (%) (ePL-tagged GSPT1) | DC50 (ePL-tagged GSPT1; [11]) [µM] | Ymin (%) (Helios) | degradation of Helios (in words) (Helios) | DC50 (Helios) [µM] | Ymin (%) (ePL-tagged Aiolos) | DC50 (ePL-tagged Aiolos) [µM] | other results
O=C1CCC(N2Cc3c(OCc4ccc(CN5CCN(c6ccc(F)cc6F)CC5)cc4)cccc3C2=O)C(=O)N1 (stereo not drawn) [Compound A] |  |  |  |  |  |  |  |  |  |  |  |  |  |  |  |  | Erk phosphorylation (pErk) [1]: attenuated; CAR degradation [2]: ~55%; degradation of CK1a (in words) (ePL-tagged CK1a): degraded CK1a to a significant extent; DC50 (ePL-tagged CK1a; read-out: EC50): 0.19 µM; inhibition of CAR activity [3]: strongly inhibit CAR activity; response of G6N mutant tagged CAR [4]: failed to respond; Aurora A levels (western blot) (Aurora A): decreased; tagged TOX levels (western blot) (tagged TOX): decreased; DC50 (ePL-tagged Ikaros; read-out: EC50): 0.022 µM; DC50 (ePL-tagged GSPT1; read-out: EC50): 0.039 µM; CAR degradation (WT ZNF2_3 degron) [5]: deep CAR degradation
O=C1CCC(N2Cc3cc(C(=O)N4Cc5cccnc5C4)ccc3C2=O)C(=O)N1 (stereo not drawn) [Compound B, 3-(5-(6,7-dihydro-5H-pyrrolo[3,4-b]pyridine-6-carbonyl)-1-oxoisoindolin-2-yl)piperidine-2,6-dione] | 82 | > 10 | 1.7 | 0.0048 | < 0.005 | 1.7 | 0.0048 | 91 | > 10 | 72 | 0.054 | 65 | some degradation activity against Helios | > 10 | 93 | > 10 | decrease of signaling (tdTomato reporter) [6]: around 75%; ubiquitination of IKZF1 ZNF2 Q1F (IKZF1 ZNF2 Q1F): heavily ubiquitinated; degradation of GSPT1 (in words) (ePL-tagged GSPT1): some degradation activity against GSPT1
O=C1CCC(N2Cc3cc(C4CCN(Cc5ccc6ncsc6c5)CC4)ccc3C2=O)C(=O)N1 (stereo not drawn) [Compound D, 3-[5-[1-(1,3-benzothiazol-6-ylmethyl)-4-piperidyl]-1-oxo-isoindolin-2-yl]piperidine-2,6-dione] | 81 | > 10 | 4.2 | 0.0007 | < 0.001 | 4.2 | 0.0007 | 93 | > 10 | 96 | > 10 | 24 | some degradation of Helios | 0.46 | 87 | > 10 | expansion and cytolytic function of degron-tagged CAR T cells [8]: decreased expansion and cytolytic function; selectivity for the Q1F degron (in words) [9]: selective for the Q1F degron; CD3+ CAR+ cells remaining ([10]; 0.85 or 8.5 mg/kg orally (both doses), blood at 8 hours): < 5%; CAR level in vivo ([10]; 0.85 or 8.5 mg/kg orally, 24 hours): remained significantly degraded; CAR expression in vivo ([10]; 48 hours after dosing): substantially restored
